This note sets out measurements from US5298411A, “Glucose dehydrogenase from pseudomonas” (Toyo Boseki Kabushiki Kaisha, priority 1990, dated 1994).

Holding throughout (type): biochemical, Pseudomonas sp. FH1227
The subject of test [1] is glucose dehydrogenase (EC1.1.1.47). The experiment in a line: Substrate specificity of the glucose dehydrogenase (enzyme activity determination). The following applies: for Relative activity (%): Substrate (100 mM), β-D-glucose = 100.0. The text has this:
(2) Substrate specificity
(§1) (11) Enzyme activity determination
(A) 0.1M Tris-HCl buffer, pH 8.0
(§2) Calculation equation: [formula]
1.0=optical path length (cm)

Test [2] has the same test system. Briefly: Km value determination.
Test [3] has the same test system. The method, then: as §1
The enzyme activity was determined by taking the enzyme activity producing 1 micromole of NADH per 1 minute under the conditions mentioned below as 1 unit.
1. The following reaction mixture is prepared in a cuvette (d=1 cm) and preheated at 37° C. for about 5 minutes.
2. An enzyme solution (0.05 ml) is added thereto, and the mixture is gently stirred. The change of absorbance at 340 nm is recorded for 5 minutes using a spectrophotometer controlled at 37° C. with water as the control. The change of absorbance per 1 minute is estimated on the basis of the linear portion from minute 2 to minute 5. (ΔOD test)
3. The blank test is conducted by following the same procedure as above except that 0.05 ml of […] (with phosphate buffer, pH 7.0) is used in place of the enzyme solution, to estimate the change in absorbance per 1 minute. (ΔOD blank)
as §2

[4] abbreviates: inhibitor concentration 2.0 × 10^-3 M, non added = 100.0.
Where [5] appears, read: read-out: Km value to the coenzyme.

Like-named read-outs stand apart in the source and are kept apart here.

As to `OC[C@H]1O[C@@H](O)[C@H](O)[C@@H](O)[C@@H]1O` [β-D-glucose], in test [1], the “Substrate specificity” value was “specifically acts on” and the “Relative activity (%)” value stood at 100.0%. Besides, in test [2] (coenzyme NAD, read-out: Km value to β-D-glucose), the Km (commonly the concentration of substrate that gives half-maximal velocity) stood at 13.8 mM. Besides, the Km in test [2] (coenzyme NADP, read-out: Km value to β-D-glucose) amounted to 12.5 mM.

On to 2-deoxy-glucose, for which, in test [1], the “Substrate specificity” value is on record as “specifically acts on” and the “Relative activity (%)” value was found to be 119.7%. As for `OC[C@H]1O[C@@](CO)(O[C@H]2O[C@H](CO)[C@@H](O)[C@H](O)[C@H]2O)[C@@H](O)[C@@H]1O` [saccharose], the “Relative activity (%)” value in test [1] came out at 0.0%. Same read-out and setting: the value for `O[C@H]1[C@H](O)[C@@H](O)[C@H](O)[C@@H](O)[C@H]1O` [inositol] was 0.2%. `[Cl][Hg][Cl]` [mercury chloride]: the “Inhibition of the enzyme” value in test [3] is recorded as “inhibited”. In addition, the “Relative activity (%)” value in test [3] (setting [4]) is recorded as 5.9%.

For the compound `OC[C@H]1O[C@H](O[C@H]2[C@H](O)[C@@H](O)[C@H](O)O[C@@H]2CO)[C@H](O)[C@@H](O)[C@@H]1O` [maltose], the “Relative activity (%)” value in test [1] is 3.9%. Turning to `OC[C@@H](O)[C@@H](O)[C@H](O)[C@H](O)CO` [D-mannitol], the “Relative activity (%)” value in test [1] is recorded as 0.0%. As for `NC(=O)c1ccc[n+]([C@@H]2O[C@H](COP(=O)([O-])OP(=O)(O)OC[C@H]3O[C@@H](n4cnc5c(N)ncnc54)[C@H](O)[C@@H]3O)[C@@H](O)[C@H]2O)c1` [NAD], the Km in test [2] (setting [5]) stood at 0.308 mM.

For `OC[C@@H]1OC(O)[C@@H](O)[C@H](O)[C@H]1O` (stereo partly drawn) [L-glucose], the “Relative activity (%)” value in test [1] was found to be 0.0%. Take xylose: the “Relative activity (%)” value in test [1] is given as 8.9%.

As for `OC[C@H]1OC(O)[C@H](O)[C@@H](O)[C@H]1O` (stereo partly drawn) [D-galactose], the “Relative activity (%)” value in test [1] is given as 0.1%.

With `O=C(O)CI` [monoiodoacetate], in test [3], the “Inhibition of the enzyme” value is reported as “inhibited” and the “Relative activity (%)” value is 0.4%. Take `O=C(CO)[C@@H](O)[C@H](O)[C@@H](O)CO` [L-sorbose]: the “Relative activity (%)” value in test [1] turned out to be 0.3%. As to `OC[C@H]1OC(O)[C@@H](O)[C@@H](O)[C@@H]1O` (stereo partly drawn) [D-mannose], the “Relative activity (%)” value in test [1] stood at 2.4%.

With `OC[C@H]1O[C@@H](O[C@H]2[C@H](O)[C@@H](O)C(O)O[C@@H]2CO)[C@H](O)[C@@H](O)[C@H]1O` (stereo partly drawn) [D-lactose], the “Relative activity (%)” value in test [1] was 1.2%. As for `OC[C@@H](O)[C@@H](O)[C@H](O)[C@@H](O)CO` [D-sorbitol], the “Relative activity (%)” value in test [1] amounted to 0.1%. On to `NC(=O)c1ccc[n+]([C@@H]2O[C@H](COP(=O)([O-])OP(=O)(O)OC[C@H]3O[C@@H](n4cnc5c(N)ncnc54)[C@H](OP(=O)(O)O)[C@@H]3O)[C@@H](O)[C@H]2O)c1` [NADP], for which the Km in test [2] (setting [5]) worked out at 0.0407 mM.

As to `O=C(CO)[C@@H](O)[C@H](O)[C@H](O)CO` [D-fructose], in test [1], the “Relative activity (%)” value came to 0.8%.

For the compound `O=[N+]([O-])[O-].[Ag+]` [silver nitrate], the “Inhibition of the enzyme” value in test [3] is “inhibited”. Moreover, the “Relative activity (%)” value in test [3] (setting [4]) is 7.1%.
